Like-named read-outs stand apart in the source and are kept apart here. Some results are limits rather than exact numbers.

Test [1] addresses recombinant SARS-CoV-2 Main protease (Mpro) (Severe acute respiratory syndrome coronavirus 2 (2019-nCoV) (SARS-CoV-2), UniProt P0DTD1). Kind of test: Cov Mpro Biochemical IC50 Assay. The note with it: read-out: MPro IC50.
The next test has as its system SARS-CoV-2-NLuc. Kind of test: microbe, parasite or virus in culture. Type of test: cell-based, SARS Coronavirus 2.
[2] abbreviates: recombinant SARS-CoV-2 Mpro, fluorogenic peptide substrate.
[3] abbreviates: Severe acute respiratory syndrome coronavirus, 48 h, read-out: MPro EC50.
Where [4] appears, read: recombinant SARS-CoV-2 Mpro 7.5 nM, fluorogenic peptide substrate 40 μM.
[5] abbreviates: Severe acute respiratory syndrome coronavirus, 48 h; read-out: MPro EC50.

As for `Cc1nc(Cl)ccc1-c1cc2[nH]c(=O)n(-c3cncc4ccccc34)c(=O)c2s1` [Example 288], the IC50 (commonly the concentration needed to halve the response being measured) in test [1] (setting [2]) was found to be 0.227 µM. The EC50 (commonly the concentration giving half of the maximal effect) in the test with SARS-CoV-2-NLuc (setting [3]) was determined as 1.05 µM.
For `N#CCCn1c(=O)n(-c2cncc3nnn(C4CC4)c23)c(=O)c2sc(-c3ccccc3Cl)cc21` [Example 938], the IC50 in test [1] (setting [4]) worked out at 0.0176 µM. Moreover, the EC50 with SARS-CoV-2-NLuc (setting [3]) was 0.077 µM.
Consider `Cn1cc2cc(-c3cccc(Cl)c3-c3ccc4c(=O)n(-c5cncc6ccccc56)c(=O)[nH]c4c3)ccc2n1` [Example 247], for which the IC50 in test [1] (setting [2]) was 0.063 µM. In addition, in the test with SARS-CoV-2-NLuc (setting [3]), the EC50 is 0.0304 µM.
The like results for `Cc1nocc1-c1cccc(Cl)c1-c1ccc2c(=O)n(-c3cncc4ccccc34)c(=O)[nH]c2c1` [Example 259] were, in that order, 0.189 µM and 0.113 µM.
The corresponding values for `Cc1c(C2CC2)cncc1-n1c(=O)[nH]c2cc(-c3ccccc3Cl)sc2c1=O` [Example 377] are > 50 µM and 6.23 µM.
The like results for `O=c1[nH]c2cc(-c3c(Cl)cccc3-c3ccc4oncc4c3)ccc2c(=O)n1-c1cncc2ccccc12` [Example 361] were, in that order, 0.0389 µM and 0.178 µM.
In the case of `Cn1ncc2cncc(-n3c(=O)c4sc(-c5ccccc5C#N)cc4n(CCC#N)c3=O)c21` [Example 782, 2-(1-(2-cyanoethyl)-3-(1-methyl-1H-pyrazolo[4,3-c]pyridin-7-yl)-2,4-dioxo-1,2,3,4-tetrahydrothieno[3,2-d]pyrimidin-6-yl)benzonitrile], the IC50 in test [1] (setting [4]) is 0.0155 µM. Further, in the test with SARS-CoV-2-NLuc (setting [3]), the EC50 worked out at 0.0398 µM.
The corresponding values for `COc1cc(-c2cc3c(s2)c(=O)n(-c2cncc4c2c(C)nn4C)c(=O)n3CCC#N)c(Cl)cc1F` [Example 925, 3-(6-(2-chloro-4-fluoro-5-methoxyphenyl)-3-(1,3-dimethyl-1H-pyrazolo[3,4-c]pyridin-4-yl)-2,4-dioxo-3,4-dihydrothieno[3,2-d]pyrimidin-1(2H)-yl)propanenitrile] are 0.00613 µM and 0.00655 µM.
With `Cc1c(-c2ccccc2Cl)sc2c(=O)n(-c3cncc4ccccc34)c(=O)[nH]c12` [Example 76], the IC50 in test [1] (setting [2]) was found to be 2.78 µM. Further, the EC50 in the test on SARS-CoV-2-NLuc (setting [3]) stood at 7.4 µM.
On to `COc1cnc(Cl)c(-c2cc3c(s2)c(=O)n(-c2cncc4cccc(F)c24)c(=O)n3CCC#N)c1` (single isomer, unassigned) [Example 1094, 3-(6-(2-chloro-5-methoxypyridin-3-yl)-3-(5-fluoroisoquinolin-4-yl)-2,4-dioxo-3,4-dihydrothieno[3,2-d]pyrimidin-1(2H)-yl)propanenitrile], for which the IC50 in test [1] (setting [4]) was 0.00327 µM. Moreover, the EC50 with SARS-CoV-2-NLuc (read-out: MPro EC50) came out at 0.00971 µM.
Regarding `COc1cc(-c2cc3c(s2)c(=O)n(-c2cncc4ccccc24)c(=O)n3CC2(CC#N)CC2)c(Cl)cc1F` [Example 661], in test [1] (setting [4]), the IC50 amounted to 0.0295 µM. For the same compound, in the test with SARS-CoV-2-NLuc (setting [3]), the EC50 was 0.037 µM.
Turning to `O=c1[nH]c2cc(-c3ccccc3OCc3ccccc3)sc2c(=O)n1-c1cncc2ccccc12` [Example 18], in test [1] (setting [2]), the IC50 was determined as 2.93 µM. For the same compound, the EC50 with SARS-CoV-2-NLuc (setting [3]) was determined as 0.208 µM.
Take `O=c1[nH]c2cc(-c3ccccc3)cnc2c(=O)n1-c1cncc2ccccc12` [Example 29]: the IC50 in test [1] (setting [2]) was found to be 0.476 µM. The EC50 in the test on SARS-CoV-2-NLuc (setting [5]) came to 4.51 µM.
Consider `COc1cc(-c2cc3[nH]c(=O)n(-c4cncc5cnn(C)c45)c(=O)c3cc2OC)c(C#N)cc1F` [Example 765], for which, in test [1] (setting [4]), the IC50 turned out to be 0.0139 µM. Moreover, the EC50 in the test with SARS-CoV-2-NLuc (setting [3]) is 0.0942 µM.
The corresponding values for `COc1cc(-c2cc3[nH]c(=O)n(-c4cncc5ncccc45)c(=O)c3s2)c(Cl)cc1F` [Example 737] are 0.0179 µM and 0.0741 µM.
The like results for `COc1cc(-c2cc3[nH]c(=O)n(-c4cncc5ccccc45)c(=O)c3s2)c(C)cc1C` [Example 717] were, in that order, 0.0238 µM and 0.0253 µM.
For `CC(C)(C)OC(=O)N1CCn2ncc(-c3cccc(Cl)c3-c3ccc4c(=O)n(-c5cncc6ccccc56)c(=O)[nH]c4c3)c2C1` [Example 271], the IC50 in test [1] (setting [2]) is 0.155 µM. The EC50 in the test on SARS-CoV-2-NLuc (setting [3]) came out at 0.208 µM.
As for `COc1cc(-c2cc3[nH]c(=O)n(-c4cncc5ccsc45)c(=O)c3s2)c(Cl)cc1F` [Example 482], in test [1] (setting [4]), the IC50 is < 0.00254 µM. The EC50 in the test with SARS-CoV-2-NLuc (setting [3]) is 0.00444 µM.
Turning to `O=c1[nH]c2cc(-c3ccccc3Cl)sc2c(=O)n1-c1cncc(C2CC2)c1` [Example 137], the IC50 in test [1] (setting [2]) came to 0.015 µM. In the test with SARS-CoV-2-NLuc (setting [3]), the EC50 came to 0.0401 µM.
The like results for `O=c1[nH]c2cc(-c3c(Cl)cccc3-c3ccc4c(c3)OCCO4)ccc2c(=O)n1-c1cncc2ccccc12` [Example 358] were, in that order, 0.177 µM and 0.113 µM.
The like results for `O=c1[nH]c2cc(-c3ccccc3)sc2c(=O)n1-c1cncc2ccccc12` [Example 2] were, in that order, 0.267 µM and 2.49 µM.
As for `O=c1[nH]c2cc(-c3ccccc3Cl)sc2c(=O)n1-c1cncc2ccc(N3CCOCC3)cc12` (single isomer, unassigned) [Example 443, 6-(2-chlorophenyl)-3-(6-morpholinoisoquinolin-4-yl)thieno[3,2-d]pyrimidine-2,4(1H,3H)-dione], the IC50 in test [1] (setting [4]) worked out at 0.0188 µM. Besides, the EC50 in the test on SARS-CoV-2-NLuc (read-out: MPro EC50) was determined as 0.045 µM.
For the compound `O=c1[nH]c2cc(-c3c(Cl)cccc3-c3ccnc(C4CC4)c3)ccc2c(=O)n1-c1cncc2ccccc12` [Example 318], in test [1] (setting [2]), the IC50 was found to be 0.00865 µM. Further, in the test on SARS-CoV-2-NLuc (setting [3]), the EC50 is < 0.00342 µM.
In the case of `N#CCCn1c(=O)n(-c2cncc3ccccc23)c(=O)c2sc(-c3ccccc3C#N)cc21` (single isomer, unassigned) [Example 964, 2-(1-(2-cyanoethyl)-3-(isoquinolin-4-yl)-2,4-dioxo-1,2,3,4-tetrahydrothieno[3,2-d]pyrimidin-6-yl)benzonitrile], the IC50 in test [1] (setting [4]) is 0.0625 µM. Moreover, in the test on SARS-CoV-2-NLuc (read-out: MPro EC50), the EC50 was 0.0871 µM.
On to `O=c1[nH]c2cc(-c3ccccc3Cl)ccc2c(=O)n1-c1cncc2ccccc12` [Example 73, 7-(2-chlorophenyl)-3-(isoquinolin-4-yl)quinazoline-2,4(1H,3H)-dione], for which the IC50 in test [1] (setting [2]) turned out to be 0.159 µM. Also, in the test on SARS-CoV-2-NLuc (setting [3]), the EC50 came to 0.262 µM.
As to `COc1ccc(Cl)c(-c2cc3[nH]c(=O)n(-c4cncc5ccccc45)c(=O)c3cc2F)c1` [Example 211], in test [1] (setting [2]), the IC50 was found to be 0.0555 µM. Besides, the EC50 in the test with SARS-CoV-2-NLuc (setting [5]) was determined as 0.0704 µM.
With `O=c1[nH]c2cc(-c3ccccc3Cl)sc2c(=O)n1-c1cncc2ccccc12` (single isomer, unassigned) [Example 150, 6-(2-chlorophenyl)-3-(isoquinolin-4-yl)thieno[3,2-d]pyrimidine-2,4(1H,3H)-dione], the IC50 in test [1] (setting [2]) was 0.073 µM. In addition, the EC50 with SARS-CoV-2-NLuc (read-out: MPro EC50) turned out to be 0.124 µM.
Turning to `N#Cc1ccccc1-c1cnc2c(=O)n(-c3cncc4ccccc34)c(=O)[nH]c2c1` [Example 69], in test [1] (setting [2]), the IC50 came to 0.0531 µM. Moreover, the EC50 in the test on SARS-CoV-2-NLuc (setting [3]) was found to be 4.21 µM.
The like results for `CC(C)(O)c1cncc(-c2cccc(Cl)c2-c2ccc3c(=O)n(-c4cncc5ccccc45)c(=O)[nH]c3c2)c1` [Example 209] were, in that order, 0.0104 µM and 0.0236 µM.
As to `CC1(C)Cc2c(-c3cccc(Cl)c3-c3ccc4c(=O)n(-c5cncc6ccccc56)c(=O)[nH]c4c3)cnn2C1` [Example 190], the IC50 in test [1] (setting [2]) is 0.0197 µM. In addition, the EC50 in the test on SARS-CoV-2-NLuc (setting [3]) was determined as 0.0164 µM.

These data come from patent US20240116946A1 (Gilead Sciences, Inc., priority 2022, published 2024).
